Assay results as given in publication PMC8242077, “Allosteric drug transport mechanism of multidrug transporter AcrB” (Nature Communications, 2021).

Molecular target: T1, AcrB (Escherichia coli, UniProt P31224)
T1 construct: full-length, His-tagged (pET24acrBHis), from E. coli C43(DE3) delta-acrAB; homotrimer, DDM-solubilised; crystallised with DARPins
Assay: X-ray co-crystal structure
Format: binding
Conditions: DARPin chaperone

T1 sequence (P31224 whole entry): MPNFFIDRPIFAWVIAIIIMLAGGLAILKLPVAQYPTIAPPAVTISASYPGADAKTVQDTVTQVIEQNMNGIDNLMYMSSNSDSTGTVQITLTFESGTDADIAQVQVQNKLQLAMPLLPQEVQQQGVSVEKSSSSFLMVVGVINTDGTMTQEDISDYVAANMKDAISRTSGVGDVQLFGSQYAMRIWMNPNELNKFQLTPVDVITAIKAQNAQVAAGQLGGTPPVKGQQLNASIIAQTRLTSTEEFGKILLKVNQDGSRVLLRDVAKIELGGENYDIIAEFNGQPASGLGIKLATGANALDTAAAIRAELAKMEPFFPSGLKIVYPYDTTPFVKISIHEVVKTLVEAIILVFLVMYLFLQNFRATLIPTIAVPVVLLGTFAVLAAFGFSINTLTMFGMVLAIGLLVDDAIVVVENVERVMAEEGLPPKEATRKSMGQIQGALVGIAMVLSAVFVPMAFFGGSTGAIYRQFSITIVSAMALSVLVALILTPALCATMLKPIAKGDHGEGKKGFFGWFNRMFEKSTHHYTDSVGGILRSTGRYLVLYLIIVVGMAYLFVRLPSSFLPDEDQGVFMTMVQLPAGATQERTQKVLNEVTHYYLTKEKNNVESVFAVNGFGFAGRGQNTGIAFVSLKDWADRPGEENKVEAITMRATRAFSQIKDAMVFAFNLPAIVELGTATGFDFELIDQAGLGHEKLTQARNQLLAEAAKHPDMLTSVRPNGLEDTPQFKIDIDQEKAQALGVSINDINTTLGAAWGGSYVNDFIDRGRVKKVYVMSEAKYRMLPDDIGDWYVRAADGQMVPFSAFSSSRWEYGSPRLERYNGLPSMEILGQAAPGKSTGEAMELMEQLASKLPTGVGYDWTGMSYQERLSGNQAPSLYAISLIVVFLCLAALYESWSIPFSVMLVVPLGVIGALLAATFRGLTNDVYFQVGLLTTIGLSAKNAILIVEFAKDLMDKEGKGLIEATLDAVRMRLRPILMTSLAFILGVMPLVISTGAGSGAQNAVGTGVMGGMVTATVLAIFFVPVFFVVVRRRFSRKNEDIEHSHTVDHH

CC(=O)O[C@H]1C[C@@]2(C)[C@@H](C[C@@H](O)[C@H]3[C@@]4(C)CC[C@@H](O)[C@@H](C)[C@@H]4CC[C@@]32C)/C1=C(\CCC=C(C)C)C(=O)O [fusidic acid]
X-ray co-crystal structure (T protomer: TMD-BP, TM1/TM2 groove and TM7/TM8 groove, co-crystallised with 1 mM each fusidic acid, erythromycin, linezolid, oxacillin): co-structure with FUA bound to a deep concave crevice surrounded by TM2, TM4, TM10-12

CO[C@H]1/C=C/O[C@@]2(C)Oc3c(C)c(O)c4c(O)c(c(C=O)c(O)c4c3C2=O)NC(=O)/C(C)=C\C=C\[C@H](C)[C@H](O)[C@@H](C)[C@@H](O)[C@@H](C)[C@H](OC(C)=O)[C@@H]1C [3-formylrifamycin SV]
X-ray co-crystal structure (access pocket of L protomer, crystallised with 3 mM rifampicin): co-crystal AcrB/3-formylrifamycin SV (3-FOR) structure
